In ChEMBL document CHEMBL5579865, “Discovery of Broad-Spectrum Herpes Antiviral Oxazolidinone Amide Derivatives and Their Structure-Activity Relationships” (ACS Med Chem Lett, 2024):
≈ marks a conversion by molar mass, not a printed value.

How the values were obtained:
[1] = test system: Human betaherpesvirus 5; assay: Antiviral activity against HCMV AD169 infected in human MRC5 cells assessed as reduction in viral replication incubated for 72 hrs in presence of 50 % serum by qRT-PCR analysis; assay type: functional, organism-based
[2] = Inhibition of HCMV DNA polymerase extracted from baculovirus infected Sf21 cells using Heterodimeric nucleic acid as substrate preincubated with enzyme for 30 mins followed by substrate and dATP addition measured after 60 mins by biotinylated UTP incorporation based AlphaLISA assay; set-up: species or system Human betaherpesvirus 5
[3] = Inhibition of VZV DNA polymerase extracted from baculovirus infected Sf21 cells using Heterodimeric nucleic acid as substrate preincubated with enzyme for 30 mins followed by substrate and dATP addition measured after 60 mins by biotinylated UTP incorporation based AlphaLISA assay; set-up: species or system Human alphaherpesvirus 3
[4] = test system: Human alphaherpesvirus 3; assay: Antiviral activity against VZV Street infected in human MeWo cells assessed as reduction in viral replication incubated for 72 hrs by qRT-PCR analysis; assay type: functional, organism-based
[5] = Solubility in PBS at pH 7; assay type: physicochemical
[6] = test system: Human alphaherpesvirus 1; assay: Antiviral activity against HSV-1 F strain infected in African green monkey Vero cells assessed as reduction in viral replication incubated for 72 hrs by qRT-PCR analysis; assay type: functional, organism-based
[7] = Metabolic stability in human liver microsomes assessed as intrinsic clearance; assay type: ADME, Microsome; details: read-out: CLH
[8] = test system: Human alphaherpesvirus 2; assay: Antiviral activity against HSV-2 G strain infected in African green monkey Vero cells assessed as reduction in viral replication incubated for 72 hrs by qRT-PCR analysis; assay type: functional, organism-based
[9] = test system: Human alphaherpesvirus 3; assay: Antiviral activity against VZV Street infected in human MRC5 cells assessed as reduction in viral replication incubated for 72 hrs by qRT-PCR analysis; assay type: functional, organism-based; details: Human alphaherpesvirus 3, Street, MRC5, 72 h
[10] = test system: Human betaherpesvirus 5; assay: Antiviral activity against HCMV AD169 infected in human MRC5 cells assessed as reduction in viral replication incubated for 72 hrs in presence of 10 % serum by qRT-PCR analysis; assay type: functional, organism-based; details: Human betaherpesvirus 5, AD169, MRC5, 72 h
[11] = Human betaherpesvirus 5, AD169, MRC5, 72 h, read-out: EC50
[12] = Human alphaherpesvirus 3, Street, MeWo, 72 h, read-out: EC50
[13] = Human alphaherpesvirus 1, F strain, Vero, 72 h, read-out: EC50
[14] = Human alphaherpesvirus 2, G strain, Vero, 72 h, read-out: EC50

SMILES	EC50 [1, 11] [µM]	IC50 [2] [µM]	IC50 [3] [µM]	EC50 [4, 12] [µM]	solubility [5] [µM]	EC50 [6, 13] [µM]	CLint scaled [7] [mL/min/kg]	EC50 [8, 14] [µM]	EC50 [4]	EC50 [1]	EC50 [6]	EC50 [8]	EC50 [9] [µM]	EC50 [10] [µM]
COc1cc(NC(=O)Cc2ccc(Cl)cc2F)ccc1C[C@H]1COC(=O)N1	1.13	0.045	0.017	0.023	153 (≈ 60.1 µg/mL)	0.214	16	0.589	–	–	–	–	–	–
O=C(Cc1ccc(Cl)cc1)Nc1ccc(C[C@@H]2COC(=O)N2)cc1	55.6	2.81	0.79	14.8	–	7.3	–	8.69	–	–	–	–	–	–
O=C(Cc1ccc(Cl)cc1)Nc1cnc(C[C@H]2COC(=O)N2)cn1	94	6.5	2.09	–	–	25.7	–	44.8	Not Active	–	–	–	–	–
COc1cc(NC(=O)Cc2ccc(F)c(Cl)c2)ccc1C[C@H]1COC(=O)N1	7.07	0.357	0.236	0.441	–	2.15	–	5.25	–	–	–	–	–	–
CCOc1cc(NC(=O)Cc2ccc(Cl)cc2)ccc1C[C@H]1COC(=O)N1	1.2	0.045	0.018	0.085	76 (≈ 29.6 µg/mL)	0.097	29	0.037	–	–	–	–	–	–
O=C(Cc1ccc(Cl)cc1)Nc1ccc(CC(F)(F)F)cc1	–	133	77.9	–	–	–	–	–	–	–	–	–	–	–
CC(C)(c1ccccc1)c1ccc(NC(=O)Cc2ccc(Cl)cc2)cc1	–	> 133	> 133	–	–	–	–	–	–	–	–	–	–	–
COc1cc(NC(=O)Cc2c(F)cc(Cl)cc2F)ccc1C[C@H]1COC(=O)N1	0.614	0.069	0.046	0.182	7 (≈ 2.88 µg/mL)	0.564	–	0.874	–	–	–	–	–	–
N#CCc1ccc(NC(=O)Cc2ccc(Cl)cc2)cc1	–	50.8	40.9	–	–	–	–	–	–	–	–	–	–	–
O=C(Cc1ccc(Cl)cc1Cl)Nc1ccc(C[C@H]2COC(=O)N2)cc1	1.34	0.13	0.13	0.54	–	0.81	–	0.91	–	–	–	–	–	–
O=C(Cc1ccc(Cl)cc1)Nc1ccc(C(=O)c2ccccc2)cc1	–	18	24.7	–	–	–	–	–	–	–	–	–	–	–
CC(=O)c1ccc(NC(=O)Cc2ccc(Cl)cc2)cc1	–	6.6	4.8	–	–	–	–	–	–	–	–	–	–	–
O=C(Cc1ccc(Cl)cc1)Nc1ccc(CC2COC(=O)N2)cn1 (racemic)	61.7	4.1	2.11	4.46	–	13.3	–	11.4	–	–	–	–	–	–
C[C@H](c1ccc(NC(=O)Cc2ccc(Cl)cc2)cc1)[C@H]1COC(=O)N1	–	16.7	6.5	–	–	–	–	–	Not Active	Not Active	Not Active	Not Active	–	–
O=C(Cc1ccc(Cl)cc1)Nc1ccc(Cc2ccccc2)cc1	–	> 133	67	–	–	–	–	–	–	–	–	–	–	–
CS(=O)(=O)c1cccc(Cc2ccc(NC(=O)Cc3ccc(Cl)cc3)cc2)c1	–	13.3	12.5	–	–	–	–	–	–	–	–	–	–	–
COc1cc(NC(=O)Cc2ccc(S(F)(F)(F)(F)F)cc2)ccc1C[C@H]1COC(=O)N1	–	0.944	2.22	–	–	–	–	–	–	Not Active	Not Active	Not Active	52.7	–
COc1cc(NC(=O)Cc2ccc(Cl)cc2)c(C)cc1C[C@H]1COC(=O)N1	–	10.8	13.9	–	–	–	–	–	Not Active	Not Active	Not Active	Not Active	–	–
O=C1N[C@@H](Cc2ccc(NS(=O)(=O)Cc3ccc(Cl)cc3)cc2)CO1	–	104	12.7	–	–	–	–	–	Not Active	Not Active	Not Active	Not Active	–	–
O=C(Cc1ccc(Cl)cc1)Nc1ccc(CC2COC(=O)N2)cc1 (racemic)	12.8	0.34	0.18	2.13	7 (≈ 2.41 µg/mL)	0.26	–	3.85	–	–	–	–	–	–
CN(C(=O)Cc1ccc(Cl)cc1Cl)c1ccc(C[C@H]2COC(=O)N2)cc1	–	14.6	14.1	–	–	–	–	–	Not Active	Not Active	Not Active	Not Active	–	–

SMILES	EC50 [1, 11] [µM]	IC50 [2] [µM]	IC50 [3] [µM]	EC50 [4, 12] [µM]	solubility [5] [µM]	EC50 [6, 13] [µM]	CLint scaled [7] [mL/min/kg]	EC50 [8, 14] [µM]	EC50 [4]	EC50 [1]	EC50 [6]	EC50 [8]	EC50 [9] [µM]	EC50 [10] [µM]
CN1C(=O)OC[C@@H]1Cc1ccc(NC(=O)Cc2ccc(Cl)cc2)cc1	–	2.55	1.84	–	–	–	–	–	Not Active	Not Active	Not Active	Not Active	–	–
O=C(Cc1ccc(Cl)cc1)Nc1ccc(C[C@H]2COC(=O)N2)cc1	4.32	0.25	0.18	0.5	–	0.53	–	1.34	–	–	–	–	–	–
O=C1N[C@@H](Cc2ccc3c(c2)CCN(Cc2ccc(Cl)cc2)C3=O)CO1	–	27.6	40.3	–	–	–	–	–	Not Active	–	Not Active	Not Active	–	44.2
O=C(Cc1ccc(Cl)cc1)Nc1ccc(Cn2cncn2)cc1	–	12.1	4.5	–	–	–	–	–	–	–	–	–	–	–
O=C1NC(Cc2ccc(C(=O)NCc3ccc(Cl)cc3)cc2)CO1 (stereo unspecified)	–	116	26	–	–	–	–	–	Not Active	Not Active	Not Active	Not Active	–	–
O=C(Cc1ccc(Cl)cc1)Nc1cc(Cl)c(C[C@H]2COC(=O)N2)cn1	99	6.31	2.87	–	–	33.7	–	64.5	Not Active	–	–	–	–	–
COc1cc(NC(=O)Cc2ccc(C#N)cc2)ccc1C[C@H]1COC(=O)N1	0.186	0.052	0.015	0.131	–	0.297	–	0.789	–	–	–	–	–	–
COc1nc(NC(=O)Cc2ccc(Cl)cc2)cnc1C[C@H]1COC(=O)N1	–	24.1	23.8	–	–	–	–	–	–	–	Not Active	Not Active	> 80.2	> 80.2
COc1cc(NC(=O)Cc2ccc(Cl)cc2)ncc1C[C@H]1COC(=O)N1	–	15.9	6.29	–	< 2	–	–	–	–	–	Not Active	Not Active	> 80.2	51.2
COc1cc(NC(=O)C2CCc3cc(Cl)ccc32)ccc1C[C@H]1COC(=O)N1 (stereo partly specified)	0.56	0.026	0.02	0.24	57 (≈ 22.8 µg/mL)	0.249	63	0.384	–	–	–	–	–	–
COc1cc(NC(=O)Cc2ccc(C#N)c(F)c2)ccc1C[C@H]1COC(=O)N1	0.141	0.046	0.028	0.265	–	0.494	–	0.551	–	–	–	–	–	–
O=C1N[C@@H](Cc2ccc3c(c2)OCC(Cc2ccc(Cl)cc2)N3)CO1 (stereo partly specified)	13.1	0.49	0.35	3.06	–	3.12	–	5.24	–	–	–	–	–	–
O=C(Cc1ccc([N+](=O)[O-])cc1)Nc1ccc(C[C@H]2COC(=O)N2)cc1	0.72	0.176	0.079	0.185	–	0.177	–	0.473	–	–	–	–	–	–
N#CC1(c2ccc(NC(=O)Cc3ccc(Cl)cc3)cc2)CC1	–	8.3	2.7	–	–	–	–	–	–	–	–	–	–	–
CC(C(=O)Nc1ccc(C[C@H]2COC(=O)N2)cc1)c1ccc(Cl)cc1 (stereo partly specified)	–	7.19	7.73	–	–	–	–	–	Not Active	Not Active	Not Active	Not Active	–	–
COc1cc(NC(=O)Cc2ccc(OC(F)(F)F)cc2)ccc1C[C@H]1COC(=O)N1	–	1.29	1.69	–	–	–	–	–	–	Not Active	Not Active	Not Active	64.5	–
O=C(Nc1ccc(Cl)cc1)Nc1ccc(C[C@H]2COC(=O)N2)cc1	–	0.48	0.21	–	–	–	–	–	Not Active	–	Not Active	Not Active	–	1.11
COc1cc(NC(=O)Cc2ccc(Cl)c(F)c2)ccc1C[C@H]1COC(=O)N1	1.94	0.097	0.036	0.126	–	0.299	–	0.647	–	–	–	–	–	–
O=C1CC(c2ccc(NC(=O)Cc3ccc(Cl)cc3)cc2)CN1 (racemic)	–	23.3	8.2	–	–	–	–	–	–	–	–	–	–	–
Cc1nccn1Cc1ccc(NC(=O)Cc2ccc(Cl)cc2)cc1	–	55	34.8	–	–	–	–	–	–	–	–	–	–	–
